#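 Growth conditions: 96-well plates. Treatment: test compound, 48 hours, 5 concentrations. Analysis: linear interpolation between bracketing concentrations; unreached endpoints set to highest concentration. The concentration for full growth arrest is given as TGI.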
# Tests used:
# Experiment in all cases: NCI anticancer screen, dose series, 48 h
# IGROV1 ovarian = tested on: IGROV1 ovarian
# UO-31 renal = tested on: UO-31 renal
# SK-MEL-5 melanoma = tested on: SK-MEL-5 melanoma
# K-562 leukemia = tested on: K-562 leukemia
# SW-620 colon = tested on: SW-620 colon
# MOLT-4 leukemia = tested on: MOLT-4 leukemia
# A549 NSCLC = tested on: A549 NSCLC
# KM12 colon = tested on: KM12 colon
# RPMI-8226 leukemia = tested on: RPMI-8226 leukemia
# SF-295 CNS = tested on: SF-295 CNS
# UACC-62 melanoma = tested on: UACC-62 melanoma
# HCT-116 colon = tested on: HCT-116 colon
# RXF 393 renal = tested on: RXF 393 renal
# HCT-15 colon = tested on: HCT-15 colon
# OVCAR-5 ovarian = tested on: OVCAR-5 ovarian
# CCRF-CEM leukemia = tested on: CCRF-CEM leukemia
# MALME-3M melanoma = tested on: MALME-3M melanoma
# SR leukemia = tested on: SR leukemia
# TK-10 renal = tested on: TK-10 renal
# ACHN renal = tested on: ACHN renal
Structure (SMILES),TGI (IGROV1 ovarian),TGI (UO-31 renal),TGI (SK-MEL-5 melanoma),TGI (K-562 leukemia),TGI (SW-620 colon),TGI (MOLT-4 leukemia),TGI (A549 NSCLC),TGI (KM12 colon),TGI (RPMI-8226 leukemia),TGI (SF-295 CNS),TGI (UACC-62 melanoma),TGI (HCT-116 colon),TGI (RXF 393 renal),TGI (HCT-15 colon),TGI (OVCAR-5 ovarian),TGI (CCRF-CEM leukemia),TGI (MALME-3M melanoma),TGI (SR leukemia),TGI (TK-10 renal),TGI (ACHN renal)
O=S(=O)(O)c1ccc(N=Nc2ccc(N=Nc3ccc(/C=C/c4ccc(N=[N+]([O-])c5ccc(/C=C/c6ccc(N=Nc7ccc(N=Nc8ccc(S(=O)(=O)O)cc8)c8ccccc78)cc6S(=O)(=O)O)c(S(=O)(=O)O)c5)cc4S(=O)(=O)O)c(S(=O)(=O)O)c3)c3ccccc23)cc1,> 100 µM,> 100 µM,> 100 µM,> 100 µM,> 100 µM,> 100 µM,> 100 µM,> 100 µM,> 100 µM,> 100 µM,> 100 µM,> 100 µM,> 100 µM,> 100 µM,> 100 µM,> 100 µM,> 100 µM,,,
O=C(COC(=O)c1ccccc1)c1ccc(Br)cc1,3.59 µM,6.08 µM,27.5 µM,> 100 µM,21.8 µM,15 µM,40.5 µM,37 µM,16.9 µM,32 µM,26.1 µM,30.2 µM,11.6 µM,35.1 µM,22.8 µM,25.9 µM,29.4 µM,7.11 µM,10.8 µM,65.9 µM
C/C(=C1/N=C(c2cc([N+](=O)[O-])ccc2Cl)N(C2=CC=C(Cl)CC2)C1=O)c1cc2ccccc2oc1=O,> 100 µM,> 100 µM,> 100 µM,> 100 µM,> 100 µM,> 100 µM,> 100 µM,> 100 µM,> 100 µM,> 100 µM,> 100 µM,> 100 µM,,,> 100 µM,> 100 µM,> 100 µM,> 100 µM,,> 100 µM
CC1=CC[C@H](C)C(C)(C)C1/C=C/C(C)=C/CC[C@@]1(CO)[C@H](CCCO)/C(=C(/C)C=O)CC[C@]1(C)O (some centres not stated),24.7 µM,21.2 µM,4.26 µM,11.8 µM,12.5 µM,20.5 µM,6.21 µM,9.63 µM,,13.9 µM,,,28.1 µM,20.4 µM,38.2 µM,24.9 µM,16.9 µM,24.3 µM,15.3 µM,16.6 µM
Cc1cc(S(N)(=O)=O)c(S/C(=N\Nc2ccc([N+](=O)[O-])cc2)c2ccc(Cl)cc2)cc1Cl,12.8 µM,22 µM,33.3 µM,> 100 µM,> 100 µM,> 100 µM,7.48 µM,4.15 µM,28.3 µM,5.46 µM,20.2 µM,> 100 µM,3.49 µM,77.9 µM,,> 100 µM,4.31 µM,9.01 µM,3.54 µM,10.4 µM
CCCCN(CCCC)c1ccc(N=Nc2ccc(S(=O)(=O)O)cc2)cc1,43.1 µM,> 100 µM,43.4 µM,> 100 µM,> 100 µM,35.2 µM,> 100 µM,32.8 µM,53.5 µM,> 100 µM,> 100 µM,29.4 µM,29.8 µM,40.4 µM,> 100 µM,38.4 µM,,,> 100 µM,> 100 µM
C=CCN1C(=O)/C(=C/c2cccs2)N=C1SC1OC(COC(=O)c2ccccc2)C(OC(=O)c2ccccc2)C1OC(=O)c1ccccc1 (configuration not stated),> 100 µM,,> 100 µM,> 100 µM,> 100 µM,> 100 µM,,> 100 µM,> 100 µM,> 100 µM,> 100 µM,,> 100 µM,> 100 µM,> 100 µM,80.9 µM,> 100 µM,> 100 µM,> 100 µM,> 100 µM
COc1cccc(NC(=O)N/C(=C/c2ccc(N(CCC#N)CCC#N)cc2)NC(=O)c2cc([N+](=O)[O-])ccc2Cl)c1,> 100 µM,> 100 µM,> 100 µM,> 100 µM,,> 100 µM,> 100 µM,> 100 µM,> 100 µM,> 100 µM,> 100 µM,> 100 µM,> 100 µM,> 100 µM,> 100 µM,> 100 µM,,> 100 µM,> 100 µM,> 100 µM
Nc1ccccc1Sc1ccc(Cl)cc1,> 100 µM,51 µM,32 µM,94.4 µM,> 100 µM,,> 100 µM,> 100 µM,67.9 µM,> 100 µM,> 100 µM,> 100 µM,32.1 µM,> 100 µM,> 100 µM,46.6 µM,> 100 µM,57.8 µM,> 100 µM,99.2 µM
